Data from publication PMC10776880 (EXCLI Journal, 2023).

Target: T1, ABCG2 (breast cancer resistance protein, BCRP) (Homo sapiens, UniProt Q9UNQ0)
T1 sequence (Q9UNQ0 1-655): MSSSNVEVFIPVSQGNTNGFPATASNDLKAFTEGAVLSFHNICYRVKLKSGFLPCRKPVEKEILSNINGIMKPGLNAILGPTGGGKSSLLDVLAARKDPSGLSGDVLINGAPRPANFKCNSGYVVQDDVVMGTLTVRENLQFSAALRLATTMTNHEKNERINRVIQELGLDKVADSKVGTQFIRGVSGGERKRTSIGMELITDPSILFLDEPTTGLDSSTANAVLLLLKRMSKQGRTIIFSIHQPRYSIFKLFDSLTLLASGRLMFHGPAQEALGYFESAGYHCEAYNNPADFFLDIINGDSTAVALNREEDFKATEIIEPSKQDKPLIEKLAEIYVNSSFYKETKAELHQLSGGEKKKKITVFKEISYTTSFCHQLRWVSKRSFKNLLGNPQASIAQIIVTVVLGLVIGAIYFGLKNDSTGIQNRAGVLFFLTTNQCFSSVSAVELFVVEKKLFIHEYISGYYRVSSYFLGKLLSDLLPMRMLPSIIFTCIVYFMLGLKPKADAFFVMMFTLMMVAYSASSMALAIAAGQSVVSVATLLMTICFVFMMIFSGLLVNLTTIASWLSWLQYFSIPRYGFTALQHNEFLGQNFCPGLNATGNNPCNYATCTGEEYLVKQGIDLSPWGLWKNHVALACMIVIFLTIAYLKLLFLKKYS
Assay: Hoechst […] efflux inhibition by flow cytometry in HEK293-ABCG2 cells; 5D3 conformational antibody shift; kinetics with mitoxantrone
Format: cell-based

**Q.** `Cc1cccc(C)c1OCC(=O)N[C@@H](Cc1ccccc1)[C@@H](O)C[C@H](Cc1ccccc1)NC(=O)[C@H](C(C)C)N1CCCNC1=O` [LPV, lopinavir] was tested. Which IC50 did it give?
**A.** 23.4 µM
